Measurements published in patent publication US12568964B2 (priority 2019, dated 2026).
Read-outs that look alike come from different tables or passages of the source.

System: Xylella fastidiosa
Format: in vivo
Conditions: 5 treatments; for Phenotypic improvement of infected olive plants after treatment: 5% w/v, sprayed on foliage, trunk and adjacent soil; for State of treated plants at 9 months after the treatment: 5% w/v in bidistilled water, 9 months after treatment

Compound | Phenotypic improvement of infected olive plants after treatment (Example 3.1: three olive trees, 200 mg per plant suspended in bidistilled water, one every 5 days) | State of treated plants at 9 months after the treatment (Example 3.1: three olive trees, 200 mg per plant, one every 5 days) | Phenotypic improvement of infected olive plants after treatment (Example 3.4: four olive trees, 150 mg per plant suspended in bidistilled water, one every 5 days) | State of treated plants at 9 months after the treatment (Example 3.4: four olive trees, 150 mg per plant)
5-hydroxy-naphthalen-1,4-dione complexed with copper | Phenotypic improvements of the plant were observed with the birth of new shoots on the branches previously in a state of desiccation and disappearance of the crumpled and yellowish colored leaves | still free of crumpled and yellowish colored leaves and dried branches |  | 
O=C1C=CC(=O)c2c(O)cccc21 [5-hydroxy-naphthalene-1,4-dione] |  |  | Phenotypic improvements of the plant were observed with the birth of new shoots on the branches previously in a state of desiccation and disappearance of the crumpled and yellowish colored leaves | still free of crumpled and yellowish colored leaves and dried branches
